Measurements taken from publication PMC9898036, “VIP152 is a selective CDK9 inhibitor with pre-clinical in vitro and in vivo efficacy in chronic lymphocytic leukemia” (Leukemia, 2022).
pIC50: −log10 of the molar value.

Assays:
SRPK3 = SRPK3 (Homo sapiens, UniProt Q9UPE1); assay: KINOMEscan: SRPK3; type: binding; conditions: 100 nM, read-out: Percent Control
ACVR1B = ACVR1B (Homo sapiens, UniProt P36896); assay: KINOMEscan: ACVR1B; type: binding; conditions: 1000 nM, read-out: Percent Control
MLK3 = MLK3 (Homo sapiens, UniProt Q16584); assay: KINOMEscan: MLK3; type: binding; conditions: 1000 nM, read-out: Percent Control
CAMK1 = CAMK1 (Homo sapiens, UniProt Q14012); assay: KINOMEscan: CAMK1; type: binding; conditions: 1000 nM, read-out: Percent Control
ABL1 = ABL1 (Homo sapiens, UniProt P00519, M351T); assay: KINOMEscan: ABL1; type: binding; conditions: ABL1(M351T)-phosphorylated, read-out: Percent Control
Procedure: The structure and synthesis of VIP152 were recently described by Lücking et al.. (Fig. 1A); however, the selectivity of the molecule in cellular systems has yet to be explored. […] We also performed this experiment at 1000 nM, where CDK9 was inhibited at 99%. […] We found a strong concordance between our data and those of Lücking when comparing the most inhibited kinases. Potential off-target effects of VIP152 were next tested in vitro at a concentration of 10 µM for off-target activity against a broad range of receptors, transporters, ion channels, and enzymes (n = 138) using the Eurofins Diversity Panel.
Kinomescan Kinase Profiling Assay
Kinomescan Assay was performed at DiscoverRX and described in Fabian, et al. 2005, Nat.
Biotechnol. In brief, kinases were produced and subsequently tagged with DNA for qPCR detection.
Streptavidin-coated magnetic beads were bound to biotinylated kinase ligands to serve as a solid support.
VIP152 was dissolved in DMSO and tested across a 10 serial threefold dilution set and compared to a test compound and a DMSO control. Kinases which were inhibited by VIP152 would not be bound to the solid-support resulting in decreased substrate for the qPCR reaction. Kinome map was produced via TreeSpot Analysis from DiscoverRX. […]

AAK1 = AAK1 (Homo sapiens, UniProt Q2M2I8); assay: KINOMEscan: AAK1; type: binding; conditions: 1000 nM, read-out: Percent Control
RIPK2 = RIPK2 (Homo sapiens, UniProt O43353); assay: KINOMEscan: RIPK2; type: binding; conditions: 100 nM, read-out: Percent Control
BMX = BMX (Homo sapiens, UniProt P51813); assay: KINOMEscan: BMX; type: binding; conditions: 1000 nM, read-out: Percent Control
ERK2 = ERK2 (Homo sapiens, UniProt P28482); assay: KINOMEscan: ERK2; type: binding; conditions: 1000 nM, read-out: Percent Control
CDK4-cyclinD1 = CDK4-cyclinD1 (Homo sapiens, UniProt P11802); assay: KINOMEscan: CDK4-cyclinD1; type: binding; conditions: 1000 nM, read-out: Percent Control
BMPR1A = BMPR1A (Homo sapiens, UniProt P36894); assay: KINOMEscan: BMPR1A; type: binding; conditions: 1000 nM, read-out: Percent Control
YANK2 = YANK2 (Homo sapiens, UniProt Q9NY57); assay: KINOMEscan: YANK2; type: binding; conditions: 100 nM, read-out: Percent Control
AMPK-alpha1 = AMPK-alpha1 (Homo sapiens, UniProt Q13131); assay: KINOMEscan: AMPK-alpha1; type: binding; conditions: 1000 nM, read-out: Percent Control
MST2 = MST2 (Homo sapiens, UniProt Q13188); assay: KINOMEscan: MST2; type: binding; conditions: 1000 nM, read-out: Percent Control
GABAB1A = GABAB1A (Homo sapiens, UniProt Q9UBS5); assay: Eurofins Diversity Panel; type: binding; conditions: hum, Conc. 10 μM
α2B receptor = target: T1, α2B receptor (Homo sapiens, UniProt P18089); assay: Eurofins Diversity Panel: adrenergic α2B receptor; type: binding
T1 construct: purchased Eurofins

WEE2 = WEE2 (Homo sapiens, UniProt P0C1S8); assay: KINOMEscan: WEE2; type: binding; conditions: 100 nM, read-out: Percent Control
HIPK2 = HIPK2 (Homo sapiens, UniProt Q9H2X6); assay: KINOMEscan: HIPK2; type: binding; conditions: 1000 nM, read-out: Percent Control
MET(M1250T) = MET(M1250T) (Homo sapiens, UniProt P08581, M1250T); assay: KINOMEscan: MET(M1250T); type: binding; conditions: 1000 nM, read-out: Percent Control
CLK3 = CLK3 (Homo sapiens, UniProt P49761); assay: KINOMEscan: CLK3; type: binding; conditions: 1000 nM, read-out: Percent Control
FLT3(ITD,D835V) = assay: KINOMEscan: FLT3(ITD,D835V); type: binding, human; conditions: 1000 nM
Cannabinoid CB1 = Cannabinoid CB1 (Homo sapiens, UniProt P21554); assay: Eurofins Diversity Panel; type: binding; conditions: hum, Conc. 10 μM
GABAA, Muscimol, Central = assay: Eurofins Diversity Panel; type: binding; conditions: rat, Conc. 10 μM
STK33 = STK33 (Homo sapiens, UniProt Q9BYT3); assay: KINOMEscan: STK33; type: binding; conditions: 100 nM, read-out: Percent Control
Thyroid Hormone = assay: Eurofins Diversity Panel; type: binding; conditions: rat, Conc. 10 μM
RIPK5 = RIPK5 (Homo sapiens, UniProt Q6XUX3); assay: KINOMEscan: RIPK5; type: binding; conditions: 100 nM, read-out: Percent Control
[1] = target: CDK9 in complex with Cyclin T2 (Homo sapiens, UniProt P50750); assay: NanoBRET target engagement assay (HEK293); type: cell-based
FLT3(N841I) = FLT3(N841I) (Homo sapiens, UniProt P36888, N841I); assay: KINOMEscan: FLT3(N841I); type: binding; conditions: 1000 nM, read-out: Percent Control
Adenosine A1 = Adenosine A1 (Homo sapiens, UniProt P30542); assay: Eurofins Diversity Panel; type: binding; conditions: hum, Conc. 10 μM
ASK2 = ASK2 (Homo sapiens, UniProt O95382); assay: KINOMEscan: ASK2; type: binding; conditions: 1000 nM, read-out: Percent Control
[2] = test system: TP53 R175H and R248Q mutated HG-3 cell lines; assay: Annexin V/propidium iodide flow cytometry; type: cell-based, human; conditions: 24, 48, and 72 h
FLT3-autoinhibited = FLT3-autoinhibited (Homo sapiens, UniProt P36888); assay: KINOMEscan: FLT3-autoinhibited; type: binding; conditions: 1000 nM, read-out: Percent Control
AMPK-alpha2 = AMPK-alpha2 (Homo sapiens, UniProt P54646); assay: KINOMEscan: AMPK-alpha2; type: binding; conditions: 1000 nM, read-out: Percent Control
Rolipram = assay: Eurofins Diversity Panel; type: binding; conditions: rat, Conc. 10 μM
LCK = LCK (Homo sapiens, UniProt P06239); assay: KINOMEscan: LCK; type: binding; conditions: 1000 nM, read-out: Percent Control

ASK2, sequence (O95382 whole entry): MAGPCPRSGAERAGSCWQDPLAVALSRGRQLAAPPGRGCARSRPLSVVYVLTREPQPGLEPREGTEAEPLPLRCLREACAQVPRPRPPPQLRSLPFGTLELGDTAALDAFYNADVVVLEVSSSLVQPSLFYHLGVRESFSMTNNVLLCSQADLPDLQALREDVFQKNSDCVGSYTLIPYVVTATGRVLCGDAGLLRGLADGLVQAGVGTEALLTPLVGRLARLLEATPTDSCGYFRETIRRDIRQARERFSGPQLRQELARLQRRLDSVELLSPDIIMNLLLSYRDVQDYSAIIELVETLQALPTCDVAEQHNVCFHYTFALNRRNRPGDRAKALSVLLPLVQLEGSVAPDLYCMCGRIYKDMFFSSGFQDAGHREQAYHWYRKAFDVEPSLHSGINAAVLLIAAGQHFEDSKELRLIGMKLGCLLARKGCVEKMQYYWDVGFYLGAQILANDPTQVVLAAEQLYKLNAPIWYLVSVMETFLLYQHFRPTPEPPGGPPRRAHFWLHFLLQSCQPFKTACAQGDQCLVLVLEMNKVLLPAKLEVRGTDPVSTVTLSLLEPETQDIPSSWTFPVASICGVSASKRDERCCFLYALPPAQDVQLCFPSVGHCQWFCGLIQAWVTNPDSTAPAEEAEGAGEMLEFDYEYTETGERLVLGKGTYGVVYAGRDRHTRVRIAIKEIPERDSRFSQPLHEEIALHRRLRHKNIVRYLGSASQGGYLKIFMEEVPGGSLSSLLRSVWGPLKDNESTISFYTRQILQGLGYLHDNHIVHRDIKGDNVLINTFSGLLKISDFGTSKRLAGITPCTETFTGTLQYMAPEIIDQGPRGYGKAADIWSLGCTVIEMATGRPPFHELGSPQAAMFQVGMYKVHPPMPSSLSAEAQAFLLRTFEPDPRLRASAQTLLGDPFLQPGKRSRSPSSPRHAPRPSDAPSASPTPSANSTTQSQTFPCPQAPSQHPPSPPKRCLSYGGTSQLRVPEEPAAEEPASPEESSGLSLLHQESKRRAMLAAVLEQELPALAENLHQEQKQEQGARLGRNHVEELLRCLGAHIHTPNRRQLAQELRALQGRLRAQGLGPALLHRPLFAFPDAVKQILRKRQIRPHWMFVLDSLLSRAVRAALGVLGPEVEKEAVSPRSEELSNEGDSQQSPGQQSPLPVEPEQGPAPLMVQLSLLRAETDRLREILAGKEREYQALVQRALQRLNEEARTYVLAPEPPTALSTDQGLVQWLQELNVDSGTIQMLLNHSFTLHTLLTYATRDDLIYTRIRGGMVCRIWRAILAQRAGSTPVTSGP
WEE2, sequence (P0C1S8 whole entry): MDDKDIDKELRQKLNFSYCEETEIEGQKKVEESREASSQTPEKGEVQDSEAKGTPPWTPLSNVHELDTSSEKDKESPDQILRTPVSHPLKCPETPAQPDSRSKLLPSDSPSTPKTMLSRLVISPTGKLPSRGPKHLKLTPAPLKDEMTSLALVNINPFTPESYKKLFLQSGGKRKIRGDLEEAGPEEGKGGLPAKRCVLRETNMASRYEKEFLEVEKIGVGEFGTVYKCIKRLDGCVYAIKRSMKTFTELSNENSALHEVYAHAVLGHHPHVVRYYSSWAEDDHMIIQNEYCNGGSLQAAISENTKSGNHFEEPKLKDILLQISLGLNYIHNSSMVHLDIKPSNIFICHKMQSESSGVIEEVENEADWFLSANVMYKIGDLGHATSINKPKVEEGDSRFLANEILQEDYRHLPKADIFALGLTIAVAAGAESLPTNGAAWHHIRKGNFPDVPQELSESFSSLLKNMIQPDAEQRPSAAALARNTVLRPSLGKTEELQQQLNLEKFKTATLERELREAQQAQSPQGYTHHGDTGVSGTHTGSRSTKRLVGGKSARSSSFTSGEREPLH
MLK3, sequence (Q16584 whole entry): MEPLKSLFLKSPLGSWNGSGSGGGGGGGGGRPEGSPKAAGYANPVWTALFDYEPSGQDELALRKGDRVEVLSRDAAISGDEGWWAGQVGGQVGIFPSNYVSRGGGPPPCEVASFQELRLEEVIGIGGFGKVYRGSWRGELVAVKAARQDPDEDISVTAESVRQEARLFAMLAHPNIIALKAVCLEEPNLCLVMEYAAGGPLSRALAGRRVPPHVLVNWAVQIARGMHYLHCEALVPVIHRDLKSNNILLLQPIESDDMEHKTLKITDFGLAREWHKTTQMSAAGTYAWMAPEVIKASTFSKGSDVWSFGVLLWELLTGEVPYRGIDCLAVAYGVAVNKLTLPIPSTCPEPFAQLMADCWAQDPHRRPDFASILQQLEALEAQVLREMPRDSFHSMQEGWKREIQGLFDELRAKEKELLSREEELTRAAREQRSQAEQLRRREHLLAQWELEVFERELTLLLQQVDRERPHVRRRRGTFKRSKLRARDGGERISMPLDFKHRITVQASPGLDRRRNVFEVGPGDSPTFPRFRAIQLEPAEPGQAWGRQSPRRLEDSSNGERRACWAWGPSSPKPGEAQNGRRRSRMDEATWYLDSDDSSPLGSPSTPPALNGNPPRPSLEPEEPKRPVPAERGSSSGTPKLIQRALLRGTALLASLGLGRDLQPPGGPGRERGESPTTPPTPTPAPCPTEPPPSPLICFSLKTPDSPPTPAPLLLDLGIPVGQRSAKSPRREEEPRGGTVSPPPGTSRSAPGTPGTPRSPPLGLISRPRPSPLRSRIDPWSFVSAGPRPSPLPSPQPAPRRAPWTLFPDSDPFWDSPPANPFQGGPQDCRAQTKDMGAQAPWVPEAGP
SRPK3, sequence (Q9UPE1 whole entry): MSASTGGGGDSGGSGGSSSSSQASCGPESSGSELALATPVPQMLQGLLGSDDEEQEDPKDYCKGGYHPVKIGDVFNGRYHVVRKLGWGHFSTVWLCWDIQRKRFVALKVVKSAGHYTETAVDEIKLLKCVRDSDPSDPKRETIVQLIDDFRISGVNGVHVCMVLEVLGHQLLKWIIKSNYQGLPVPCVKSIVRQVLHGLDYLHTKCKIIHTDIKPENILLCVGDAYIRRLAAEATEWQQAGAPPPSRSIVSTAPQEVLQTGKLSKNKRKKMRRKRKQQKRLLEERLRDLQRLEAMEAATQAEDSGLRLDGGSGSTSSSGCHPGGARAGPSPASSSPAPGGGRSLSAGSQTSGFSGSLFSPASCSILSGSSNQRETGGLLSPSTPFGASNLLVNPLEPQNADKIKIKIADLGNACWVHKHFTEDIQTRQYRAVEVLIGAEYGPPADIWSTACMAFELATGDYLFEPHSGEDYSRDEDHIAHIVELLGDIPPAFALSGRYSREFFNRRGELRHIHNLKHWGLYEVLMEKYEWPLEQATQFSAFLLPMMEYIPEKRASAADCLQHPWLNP
BMX, sequence (P51813 whole entry): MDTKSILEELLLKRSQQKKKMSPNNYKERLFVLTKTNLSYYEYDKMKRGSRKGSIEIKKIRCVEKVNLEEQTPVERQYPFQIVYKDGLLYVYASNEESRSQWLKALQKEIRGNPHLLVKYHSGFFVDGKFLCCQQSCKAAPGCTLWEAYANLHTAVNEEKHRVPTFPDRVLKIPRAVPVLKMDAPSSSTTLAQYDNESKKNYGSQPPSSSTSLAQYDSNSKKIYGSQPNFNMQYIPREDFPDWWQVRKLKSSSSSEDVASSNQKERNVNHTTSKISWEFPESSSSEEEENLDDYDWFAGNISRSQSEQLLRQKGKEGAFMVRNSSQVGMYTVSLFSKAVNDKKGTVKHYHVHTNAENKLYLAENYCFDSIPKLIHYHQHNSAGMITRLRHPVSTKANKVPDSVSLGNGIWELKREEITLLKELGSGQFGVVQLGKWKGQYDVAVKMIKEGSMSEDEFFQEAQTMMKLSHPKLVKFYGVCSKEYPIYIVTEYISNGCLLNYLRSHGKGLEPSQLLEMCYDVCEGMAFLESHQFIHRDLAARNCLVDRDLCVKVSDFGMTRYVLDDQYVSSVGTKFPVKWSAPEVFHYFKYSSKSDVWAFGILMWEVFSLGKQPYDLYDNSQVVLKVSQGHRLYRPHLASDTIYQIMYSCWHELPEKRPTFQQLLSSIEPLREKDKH
MST2, sequence (Q13188 whole entry): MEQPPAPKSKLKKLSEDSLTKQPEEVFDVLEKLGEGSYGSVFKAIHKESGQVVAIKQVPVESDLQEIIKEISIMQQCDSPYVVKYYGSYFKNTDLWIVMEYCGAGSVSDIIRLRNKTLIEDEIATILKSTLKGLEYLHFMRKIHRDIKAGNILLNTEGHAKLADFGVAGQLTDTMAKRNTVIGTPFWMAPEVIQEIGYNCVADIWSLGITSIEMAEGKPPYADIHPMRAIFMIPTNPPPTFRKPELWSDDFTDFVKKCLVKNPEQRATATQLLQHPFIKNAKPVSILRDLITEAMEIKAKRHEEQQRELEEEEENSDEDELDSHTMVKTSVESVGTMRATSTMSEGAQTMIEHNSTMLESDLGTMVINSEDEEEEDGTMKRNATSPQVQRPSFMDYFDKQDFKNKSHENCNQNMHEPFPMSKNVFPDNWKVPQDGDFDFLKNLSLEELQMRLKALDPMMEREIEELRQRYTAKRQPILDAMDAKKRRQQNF
RIPK2, sequence (O43353 whole entry): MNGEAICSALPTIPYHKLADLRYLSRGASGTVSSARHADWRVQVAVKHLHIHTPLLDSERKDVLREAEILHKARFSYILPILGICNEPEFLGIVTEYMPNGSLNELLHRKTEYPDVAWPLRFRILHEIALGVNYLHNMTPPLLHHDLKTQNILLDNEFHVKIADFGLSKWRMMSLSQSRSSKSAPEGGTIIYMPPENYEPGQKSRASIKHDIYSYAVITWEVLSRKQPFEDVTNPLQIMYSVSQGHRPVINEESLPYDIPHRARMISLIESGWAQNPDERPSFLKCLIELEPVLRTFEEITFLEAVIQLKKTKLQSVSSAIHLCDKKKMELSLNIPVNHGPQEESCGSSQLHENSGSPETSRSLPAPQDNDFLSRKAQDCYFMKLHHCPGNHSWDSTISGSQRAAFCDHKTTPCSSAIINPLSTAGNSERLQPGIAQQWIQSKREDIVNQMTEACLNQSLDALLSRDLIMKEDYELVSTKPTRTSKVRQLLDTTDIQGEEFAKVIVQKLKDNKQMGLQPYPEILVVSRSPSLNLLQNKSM

COc1cc(F)ccc1-c1cc(Nc2cc(CS(C)(=N)=O)ccn2)ncc1F (stereo not drawn) [VIP152]
remaining binding at 0.1 µM (SRPK3): 100%
remaining binding at 1 µM (ACVR1B): 96%
remaining binding at 1 µM (MLK3): 87%
remaining binding at 1 µM (CAMK1): 78%
remaining binding at 0.1 µM (ABL1; 100 nM): 86%
remaining binding at 1 µM (ABL1; 1000 nM): 43%
remaining binding at 1 µM (AAK1): 47%
remaining binding at 0.1 µM (RIPK2): 100%
remaining binding at 1 µM (BMX): 3.8%
remaining binding at 1 µM (ERK2): 99%
remaining binding at 1 µM (CDK4-cyclinD1): 7.8%
remaining binding at 1 µM (BMPR1A): 97%
remaining binding at 0.1 µM (YANK2): 71%
remaining binding at 1 µM (AMPK-alpha1): 91%
remaining binding at 1 µM (MST2): 96%
inhibition at 10 µM (GABAB1A): 1%
pIC50 (α2B receptor): 5.93
remaining binding at 0.1 µM (WEE2): 100%
remaining binding at 1 µM (HIPK2): 71%
remaining binding at 1 µM (MET(M1250T)): 27%
remaining binding at 1 µM (CLK3): 85%
Percent Control (FLT3(ITD,D835V)): 60%
inhibition at 10 µM (Cannabinoid CB1): 16%
% Inh. (GABAA, Muscimol, Central): -3%
remaining binding at 0.1 µM (STK33): 88%
% Inh. (Thyroid Hormone): 20%
remaining binding at 0.1 µM (RIPK5): 83%
potency versus the other inhibitors [1]: higher potency
remaining binding at 1 µM (FLT3(N841I)): 54%
inhibition at 10 µM (Adenosine A1): 4%
remaining binding at 1 µM (ASK2): 91%
cytotoxicity [2]: significant levels of cytotoxicity
remaining binding at 1 µM (FLT3-autoinhibited): 76%
remaining binding at 1 µM (AMPK-alpha2): 99%
% Inh. (Rolipram): 1%
remaining binding at 1 µM (LCK): 56%
